Reference: US20230365592A1 (Agios Pharmaceuticals, Inc., priority 2022, published 2023)

The molecules below were run against T1, human PAH with the R408W mutation (Homo sapiens, UniProt P00439, R408W) (assay: Cell Based Phenylalanine Flux Assay). Conditions: A375 cells expressing R408W PAH; 24 hrs with compound, then 20 µM sepiapterin and 800 µM 13C9,15N-Phenylalanine for 4 hours; 13C-Tyrosine by LC-MS; average where tested multiple times; read-out: AC50.
T1 construct: expressed in transfected cells
T1 sequence (P00439 1-452 R408W): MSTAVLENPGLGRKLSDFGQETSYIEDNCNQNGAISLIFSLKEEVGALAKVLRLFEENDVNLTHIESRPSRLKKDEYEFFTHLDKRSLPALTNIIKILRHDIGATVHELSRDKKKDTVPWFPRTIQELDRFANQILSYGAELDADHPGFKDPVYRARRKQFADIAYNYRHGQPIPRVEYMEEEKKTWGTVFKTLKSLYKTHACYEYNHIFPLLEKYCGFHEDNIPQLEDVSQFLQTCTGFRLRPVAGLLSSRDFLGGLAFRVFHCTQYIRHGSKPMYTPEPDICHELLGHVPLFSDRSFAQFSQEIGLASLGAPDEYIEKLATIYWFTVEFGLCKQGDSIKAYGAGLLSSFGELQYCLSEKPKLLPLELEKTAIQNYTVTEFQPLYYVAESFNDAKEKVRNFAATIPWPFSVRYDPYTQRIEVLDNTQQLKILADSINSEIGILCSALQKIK
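Also: after compound treatment, cells received sepiapterin plus isotope-labelled Phenylalanine for 4 hours, then labelled Tyrosine in the medium was quantified, 10-point 2-fold dilution series run in duplicate.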

Compared with FC(F)c1nnc(N2CCc3[nH]cnc3C2c2cc3cccc(Cl)n3n2)o1 (centres unmarked), CC(C)(F)c1nnc(N2CCc3[nH]cnc3C2c2cc3ccccn3n2)o1 (centres unmarked) is higher in AC50: 1000 to 5000 nM for the first, > 5000 nM for the second.

O=C(c1nnc(-c2ncccn2)o1)N1CCc2[nH]cnc2C1c1cc2cccc(C(F)(F)F)n2n1 (centres unmarked) and O=C(c1nc2ccccc2s1)N1CCc2[nH]cnc2C1c1cc2c(C(F)(F)F)cccn2n1 (centres unmarked) fall in the same range of AC50: 1000 to 5000 nM for the first, 1000 to 5000 nM for the second.

CC(C)(C)c1nnc(N2CCc3[nH]cnc3C2c2cc3ccccn3n2)o1 (centres unmarked) and Cc1c(C2c3nc[nH]c3CCN2C(=O)c2nnc(C(C)(C)F)o2)nn2ccccc12 (centres unmarked) fall in the same range of AC50: 1000 to 5000 nM for the first, 1000 to 5000 nM for the second.

Cn1cc(-c2ccc3c(C(=O)N4CCc5[nH]cnc5C4c4cc5ccccn5n4)cnn3c2)cn1 (centres unmarked) and Cc1cccn2nc(C3c4nc[nH]c4CCN3C(=O)c3oc(-c4ccccn4)nc3C(F)F)cc12 (centres unmarked) fall in the same range of AC50: 1000 to 5000 nM for the first, 1000 to 5000 nM for the second.

Same assay, conditions: A375 cells expressing human PAH R408W; 24 hrs compound incubation; 13C-Tyrosine by LC-MS; average where tested multiple times; read-out: AC50

First: O=C(c1nnc(C2CC2)s1)N1CCc2[nH]cnc2[C@H]1c1cc2ccccn2n1 [Example 1991, (S)-(5-cyclopropyl-1,3,4-thiadiazol-2-yl)(4-(pyrazolo[1,5-a]pyridin-2-yl)-1,4,6,7-tetrahydro-5H-imidazo[4,5-c]pyridin-5-yl)methanone]
Second: Cc1c(-c2nnc(C(=O)N3CCc4[nH]cnc4[C@H]3c3cc4c(C5CC5)cccn4n3)o2)cnn1C [Example 1898, (S)-(4-(4-cyclopropylpyrazolo[1,5-a]pyridin-2-yl)-1,4,6,7-tetrahydro-5H-imidazo[4,5-c]pyridin-5-yl)(5-(1,5-dimethyl-1H-pyrazol-4-yl)-1,3,4-oxadiazol-2-yl)methanone]
The AC50 of the first is higher: 500 to 1000 nM for the first, < 500 nM for the second.

First: Cc1c(-c2ncc(C(=O)N3CCc4[nH]cnc4[C@H]3c3cc4c(F)cccn4n3)o2)cnn1C [Example 2066, (S)-(2-(1,5-dimethyl-1H-pyrazol-4-yl)oxazol-5-yl)(4-(4-fluoropyrazolo[1,5-a]pyridin-2-yl)-1,4,6,7-tetrahydro-5H-imidazo[4,5-c]pyridin-5-yl)methanone]
Second: Cn1ccc(-c2ncc(C(=O)N3CCc4[nH]cnc4[C@H]3c3cc4c(F)cccn4n3)o2)n1 [Example 2505, (S)-(4-(4-fluoropyrazolo[1,5-a]pyridin-2-yl)-1,4,6,7-tetrahydro-5H-imidazo[4,5-c]pyridin-5-yl)(2-(1-methyl-1H-pyrazol-3-yl)oxazol-5-yl)methanone]
The AC50 of the first is lower: 500 to 1000 nM for the first, 1000 to 5000 nM for the second.

First: CC(C)c1cccn2nc([C@H]3c4nc[nH]c4CCN3C(=O)c3nnc(-c4ncccc4F)o3)cc12 [Example 1907, (R)-(5-(3-fluoropyridin-2-yl)-1,3,4-oxadiazol-2-yl)(4-(4-isopropylpyrazolo[1,5-a]pyridin-2-yl)-1,4,6,7-tetrahydro-5H-imidazo[4,5-c]pyridin-5-yl)methanone]
Second: Cc1cccn2nc([C@@H]3c4nc[nH]c4CCN3c3nnc(-c4c(F)cccc4F)o3)cc12 [Example 1845, (S)-2-(2,6-difluorophenyl)-5-(4-(4-methylpyrazolo[1,5-a]pyridin-2-yl)-6,7-dihydro-1H-imidazo[4,5-c]pyridin-5(4H)-yl)-1,3,4-oxadiazole]
The AC50 of the first is higher: > 5000 nM for the first, < 500 nM for the second.

Going from COc1cccn2nc([C@@H]3c4nc[nH]c4CCN3c3nnc(C(F)F)o3)cc12 [Example 2151, (S)-2-(difluoromethyl)-5-(4-(4-methoxypyrazolo[1,5-a]pyridin-2-yl)-1,4,6,7-tetrahydro-5H-imidazo[4,5-c]pyridin-5-yl)-1,3,4-oxadiazole] to Fc1cccc(F)c1-c1nnc(N2CCc3[nH]cnc3[C@@H]2c2cc3ccccn3n2)o1 (single isomer, unassigned) [Example 1842], the AC50 rises from < 500 nM to > 5000 nM.

Same assay, conditions: A375 cells expressing human R408W PAH; 24 hrs compound incubation; 13C-Tyrosine by LC-MS; average where tested multiple times; read-out: AC50

O=C(c1nnc(-c2ccccn2)o1)N1CCc2[nH]cnc2[C@@H]1c1cc2ccccn2n1 [Example 604, (R)-(4-(pyrazolo[1,5-a]pyridin-2-yl)-6,7-dihydro-1H-imidazo[4,5-c]pyridin-5(4H)-yl)(5-(pyridin-2-yl)-1,3,4-oxadiazol-2-yl)methanone] and O=C(c1nnc(C2CC2)o1)N1CCc2[nH]cnc2[C@@H]1c1cc2ccccn2n1 [Example 621, (R)-(5-cyclopropyl-1,3,4-oxadiazol-2-yl)(4-(pyrazolo[1,5-a]pyridin-2-yl)-6,7-dihydro-1H-imidazo[4,5-c]pyridin-5(4H)-yl)methanone] cannot be ordered by AC50: > 5000 nM for the first, > 5000 nM for the second.

Cc1c([C@@H]2c3nc[nH]c3CCN2C(=O)c2ocnc2C(F)F)nn2ccccc12 [Example 784, (S)-(4-(difluoromethyl)oxazol-5-yl)(4-(3-methylpyrazolo[1,5-a]pyridin-2-yl)-6,7-dihydro-1H-imidazo[4,5-c]pyridin-5(4H)-yl)methanone] and O=C(c1ocnc1C(F)(F)F)N1CCc2[nH]cnc2[C@H]1c1cc2cccc(Cl)n2n1 [Example 1172, (S)-(4-(7-chloropyrazolo[1,5-a]pyridin-2-yl)-6,7-dihydro-1H-imidazo[4,5-c]pyridin-5(4H)-yl)(4-(trifluoromethyl)oxazol-5-yl)methanone] cannot be ordered by AC50: < 500 nM for the first, < 500 nM for the second.

Cc1cccc2cc([C@H]3c4nc[nH]c4CCN3C(=O)c3nnc(-c4cnccn4)o3)nn12 [Example 1338, (R)-(4-(7-methylpyrazolo[1,5-a]pyridin-2-yl)-6,7-dihydro-1H-imidazo[4,5-c]pyridin-5(4H)-yl)(5-(pyrazin-2-yl)-1,3,4-oxadiazol-2-yl)methanone] and Cc1cccc2cc([C@H]3c4nc[nH]c4CCN3C(=O)c3nnc(-c4ncccc4F)o3)nn12 [Example 913, (R)-(5-(3-fluoropyridin-2-yl)-1,3,4-oxadiazol-2-yl)(4-(7-methylpyrazolo[1,5-a]pyridin-2-yl)-6,7-dihydro-1H-imidazo[4,5-c]pyridin-5(4H)-yl)methanone] cannot be ordered by AC50: > 5000 nM for the first, > 5000 nM for the second.

First: COc1cccn2nc([C@@H]3c4nc[nH]c4CCN3C(=O)c3nnc(C(C)(C)C)o3)cc12 [Example 1183, (S)-(5-(tert-butyl)-1,3,4-oxadiazol-2-yl)(4-(4-methoxypyrazolo[1,5-a]pyridin-2-yl)-6,7-dihydro-1H-imidazo[4,5-c]pyridin-5(4H)-yl)methanone]
Second: COc1cccn2nc([C@H]3c4nc[nH]c4CCN3C(=O)c3nnc(C(C)(C)F)o3)cc12 [Example 970, (R)-(5-(2-fluoropropan-2-yl)-1,3,4-oxadiazol-2-yl)(4-(4-methoxypyrazolo[1,5-a]pyridin-2-yl)-6,7-dihydro-1H-imidazo[4,5-c]pyridin-5(4H)-yl)methanone]
The AC50 of the first is lower: 500 to 1000 nM for the first, > 5000 nM for the second.

O=C(c1ccnn1C(F)F)N1CCc2[nH]cnc2[C@H]1c1cc2ccc(C(F)(F)F)cn2n1 [Example 1138, (S)-(1-(difluoromethyl)-1H-pyrazol-5-yl)(4-(6-(trifluoromethyl)pyrazolo[1,5-a]pyridin-2-yl)-6,7-dihydro-1H-imidazo[4,5-c]pyridin-5(4H)-yl)methanone] and O=C(c1nnc(-c2ccn(C(F)(F)F)n2)o1)N1CCc2[nH]cnc2[C@H]1c1cc2cccc(C(F)F)n2n1 [Example 1544, (S)-(4-(7-(difluoromethyl)pyrazolo[1,5-a]pyridin-2-yl)-6,7-dihydro-1H-imidazo[4,5-c]pyridin-5(4H)-yl)(5-(1-(trifluoromethyl)-1H-pyrazol-3-yl)-1,3,4-oxadiazol-2-yl)methanone] cannot be ordered by AC50: < 500 nM for the first, < 500 nM for the second.

First: FC(F)c1cccn2nc([C@@H]3c4nc[nH]c4CCN3c3ncccn3)cc12 [Example 1762, (S)-4-(4-(difluoromethyl)pyrazolo[1,5-a]pyridin-2-yl)-5-(pyrimidin-2-yl)-4,5,6,7-tetrahydro-1H-imidazo[4,5-c]pyridine]
Second: O=C(c1nnc(-c2ncccn2)o1)N1CCc2[nH]cnc2[C@@H]1c1cc2c(F)cccn2n1 [Example 1312, (R)-(4-(4-fluoropyrazolo[1,5-a]pyridin-2-yl)-6,7-dihydro-1H-imidazo[4,5-c]pyridin-5(4H)-yl)(5-(pyrimidin-2-yl)-1,3,4-oxadiazol-2-yl)methanone]
The AC50 of the first is lower: < 500 nM for the first, 1000 to 5000 nM for the second.

First: Cc1nn(C)cc1-c1nnc(C(=O)N2CCc3[nH]cnc3[C@H]2c2cc3cccc(C(F)F)n3n2)o1 [Example 1582, (S)-(4-(7-(difluoromethyl)pyrazolo[1,5-a]pyridin-2-yl)-6,7-dihydro-1H-imidazo[4,5-c]pyridin-5(4H)-yl)(5-(1,3-dimethyl-1H-pyrazol-4-yl)-1,3,4-oxadiazol-2-yl)methanone]
Second: Cc1cccn2nc([C@H]3c4nc[nH]c4CCN3C(=O)c3nnc(-c4cn(C)cn4)o3)cc12 [Example 807, (R)-(5-(1-methyl-1H-imidazol-4-yl)-1,3,4-oxadiazol-2-yl)(4-(4-methylpyrazolo[1,5-a]pyridin-2-yl)-6,7-dihydro-1H-imidazo[4,5-c]pyridin-5(4H)-yl)methanone]
The AC50 of the first is lower: 500 to 1000 nM for the first, > 5000 nM for the second.

First: CC(C)(F)c1nnc(C(=O)N2CCc3[nH]cnc3[C@@H]2c2cc3c(OC(F)F)cccn3n2)o1 [Example 1729, (R)-(4-(4-(difluoromethoxy)pyrazolo[1,5-a]pyridin-2-yl)-6,7-dihydro-1H-imidazo[4,5-c]pyridin-5(4H)-yl)(5-(2-fluoropropan-2-yl)-1,3,4-oxadiazol-2-yl)methanone]
Second: O=C(c1nnc(-c2cnn(C(F)(F)F)c2)o1)N1CCc2[nH]cnc2[C@H]1c1cc2c(F)cccn2n1 [Example 1540, (S)-(4-(4-fluoropyrazolo[1,5-a]pyridin-2-yl)-6,7-dihydro-1H-imidazo[4,5-c]pyridin-5(4H)-yl)(5-(1-(trifluoromethyl)-1H-pyrazol-4-yl)-1,3,4-oxadiazol-2-yl)methanone]
The AC50 of the first is higher: > 5000 nM for the first, 500 to 1000 nM for the second.
